Reference: US20230263822A1, “MODULATION OF FACTOR 11 EXPRESSION” (Ionis Pharmaceuticals, Inc., priority 2008, published 2023)
Strand notation (5' to 3'): a small letter for the sugar, then the base; units joined by * are phosphorothioate-linked, units joined directly phosphodiester-linked; [ ] holds rarer units or linkages, { } end groups; capitals alone tell only the bases. e = 2'-O-(2-methoxyethyl) (MOE); [5mC] = 5-methylcytosine; d = 2'-deoxy (DNA)

The substances below were run on human Factor 11 mRNA (assay: Antisense inhibition of human Factor 11 in HepG2 cells by microwalk gapmers, lipofectin, 75 nM (Example 3)). Details: HepG2, lipofectin, ~24 h, gapmers targeted to nucleobases 656 to 704 of SEQ ID NO: 1.
Type: cell-based
Experimental: These gapmers were designed by creating gapmers shifted slightly upstream and downstream (i.e. “microwalk”) of the original gapmers from Table 3. Gapmers were also created with various motifs, e.g. 5-10-5 MOE, 3-14-3 MOE, and 2-13-5 MOE. These gapmers were tested in vitro. Cultured HepG2 cells at a density of 10,000 cells per well were transfected using lipofectin reagent with 75 nM antisense oligonucleotide. After a treatment period of approximately 24 hours, RNA was isolated from the cells and Factor 11 mRNA levels were measured by quantitative real-time PCR. Factor 11 mRNA levels were adjusted according to total RNA content, as measured by RIBOGREEN. Results are presented as percent inhibition of Factor 11, relative to untreated control cells.
The chimeric antisense oligonucleotides in Table 4 were designed as 5-10-5 MOE, 3-14-3 MOE, and 2-13-5 MOE gapmers. The first listed gapmers in Table 4 are the original gapmers (see Table 3) from which the remaining gapmers were designed via microwalk and are designated by an asterisk. The 5-10-5 gapmers are 20 nucleotides in length, wherein the central gap segment is comprised of 10 2′-deoxynucleotides and is flanked on both sides (in the 5′ and 3′ directions) by wings comprising 5 nucleotides each. The 3-14-3 gapmers are 20 nucleotides in length, wherein the central gap segment is comprised of 14 2′-deoxynucleotides and is flanked on both sides (in the 5′ and 3′ directions) by wings comprising 3 nucleotides each. The 2-13-5 gapmers are 20 nucleotides in length, wherein the central gap segment is comprised of 13 2′-deoxynucleotides. The central gap is flanked on the 5′ end with a wing comprising 2 nucleotides and on the 3′ end with a wing comprising 5 nucleotides. For each of the motifs (5-10-5, 3-14-3, and 2-13-5), each nucleotide in the 5′ wing segment and each nucleotide in the 3′ wing segment has a 2′-MOE modification. The internucleoside linkages throughout each gapmer are phosphorothioate (P=S) linkages. All cytidine residues throughout each gapmer are 5-methyl cytidines. “Target start site” indicates the 5′-most nucleotide to which the gapmer is targeted. “Target stop site” indicates the 3′-most nucleotide to which the gapmer is targeted. Each gapmer listed in Table 4 is targeted to SEQ ID NO: 1 (GENBANK Accession No. NM_000128.3).

Substance | % inhibition
416815 (antisense eT*eA*eG*eG*eT*d[5mC]*d[5mC]*dA*d[5mC]*dA*dT*dA*dA*dA*dT*eG*eT*e[5mC]*eT*eT) [compound 416815] | 63%
416974 (antisense eT*eT*dT*dA*dT*dG*d[5mC]*d[5mC]*d[5mC]*dT*dT*d[5mC]*dA*dT*dG*eT*e[5mC]*eT*eA*eG) [compound 416974] | 73%
416959 (antisense eT*e[5mC]*dT*dA*dG*dG*dT*d[5mC]*d[5mC]*dA*d[5mC]*dA*dT*dA*dA*eA*eT*eG*eT*e[5mC]) [compound 416959] | 25%
416950 (antisense eA*e[5mC]*dA*dT*dA*dA*dA*dT*dG*dT*d[5mC]*dT*dT*dT*dG*eT*eT*eG*e[5mC]*eA) [compound 416950] | 71%
416882 (antisense eT*e[5mC]*eT*dA*dG*dG*dT*d[5mC]*d[5mC]*dA*d[5mC]*dA*dT*dA*dA*dA*dT*eG*eT*e[5mC]) [compound 416882] | 60%
416967 (antisense e[5mC]*e[5mC]*dT*dT*d[5mC]*dA*dT*dG*dT*d[5mC]*dT*dA*dG*dG*dT*e[5mC]*e[5mC]*eA*e[5mC]*eA) [compound 416967] | 75%
416873 (antisense eA*e[5mC]*eA*dT*dA*dA*dA*dT*dG*dT*d[5mC]*dT*dT*dT*dG*dT*dT*eG*e[5mC]*eA) [compound 416873] | 51%
416960 (antisense eG*eT*d[5mC]*dT*dA*dG*dG*dT*d[5mC]*d[5mC]*dA*d[5mC]*dA*dT*dA*eA*eA*eT*eG*eT) [compound 416960] | 60%
416879 (antisense eA*eG*eG*dT*d[5mC]*d[5mC]*dA*d[5mC]*dA*dT*dA*dA*dA*dT*dG*dT*d[5mC]*eT*eT*eT) [compound 416879] | 92%
416819 (antisense eA*eT*eG*eT*e[5mC]*dT*dA*dG*dG*dT*d[5mC]*d[5mC]*dA*d[5mC]*dA*eT*eA*eA*eA*eT) [compound 416819] | 56%
416946 (antisense eA*eA*dA*dT*dG*dT*d[5mC]*dT*dT*dT*dG*dT*dT*dG*d[5mC]*eA*eA*eG*e[5mC]*eG) [compound 416946] | 86%
416963 (antisense e[5mC]*eA*dT*dG*dT*d[5mC]*dT*dA*dG*dG*dT*d[5mC]*d[5mC]*dA*d[5mC]*eA*eT*eA*eA*eA) [compound 416963] | 48%
416874 (antisense e[5mC]*eA*e[5mC]*dA*dT*dA*dA*dA*dT*dG*dT*d[5mC]*dT*dT*dT*dG*dT*eT*eG*e[5mC]) [compound 416874] | 49%
416875 (antisense e[5mC]*e[5mC]*eA*d[5mC]*dA*dT*dA*dA*dA*dT*dG*dT*d[5mC]*dT*dT*dT*dG*eT*eT*eG) [compound 416875] | 75%
416952 (antisense e[5mC]*e[5mC]*dA*d[5mC]*dA*dT*dA*dA*dA*dT*dG*dT*d[5mC]*dT*dT*eT*eG*eT*eT*eG) [compound 416952] | 51%
416970 (antisense eT*eG*d[5mC]*d[5mC]*d[5mC]*dT*dT*d[5mC]*dA*dT*dG*dT*d[5mC]*dT*dA*eG*eG*eT*e[5mC]*e[5mC]) [compound 416970] | 88%

Same assay, conditions: HepG2 cells, lipofectin, gapmers targeted to nucleobases 1018 to 1042 of SEQ ID NO: 1

Substance | % inhibition
416982 (antisense eA*e[5mC]*d[5mC]*dG*dG*dG*dA*dT*dG*dA*dT*dG*dA*dG*dT*eG*e[5mC]*eA*eG*eA) [compound 416982] | 84%
416837 (antisense e[5mC]*eA*eA*e[5mC]*e[5mC]*dG*dG*dG*dA*dT*dG*dA*dT*dG*dA*eG*eT*eG*e[5mC]*eA) [compound 416837] | 90%
416836 (antisense eA*eA*e[5mC]*e[5mC]*eG*dG*dG*dA*dT*dG*dA*dT*dG*dA*dG*eT*eG*e[5mC]*eA*eG) [compound 416836] | 89%

Same assay, conditions: HepG2 cells, lipofectin, gapmers targeted to nucleobases 1062 to 1091 of SEQ ID NO: 1

Substance | % inhibition
416844 (antisense e[5mC]*eT*eT*eT*eG*dA*dG*dA*dT*dT*d[5mC]*dT*dT*dT*dG*eG*eG*e[5mC]*e[5mC]*eA) [compound 416844] | 90%
416916 (antisense e[5mC]*eT*eT*dT*dG*dA*dG*dA*dT*dT*d[5mC]*dT*dT*dT*dG*dG*dG*e[5mC]*e[5mC]*eA) [compound 416916] | 91%
416915 (antisense eT*eT*eT*dG*dA*dG*dA*dT*dT*d[5mC]*dT*dT*dT*dG*dG*dG*d[5mC]*e[5mC]*eA*eT) [compound 416915] | 79%
416994 (antisense eT*e[5mC]*dT*dT*dT*dG*dA*dG*dA*dT*dT*d[5mC]*dT*dT*dT*eG*eG*eG*e[5mC]*e[5mC]) [compound 416994] | 83%
416840 (antisense eA*eG*eA*eT*eT*d[5mC]*dT*dT*dT*dG*dG*dG*d[5mC]*d[5mC]*dA*eT*eT*e[5mC]*e[5mC]*eT) [compound 416840] | 85%
416917 (antisense eT*e[5mC]*eT*dT*dT*dG*dA*dG*dA*dT*dT*d[5mC]*dT*dT*dT*dG*dG*eG*e[5mC]*e[5mC]) [compound 416917] | 92%
416841 (antisense eG*eA*eG*eA*eT*dT*d[5mC]*dT*dT*dT*dG*dG*dG*d[5mC]*d[5mC]*eA*eT*eT*e[5mC]*e[5mC]) [compound 416841] | 87%

Same assay, conditions: HepG2 cells, lipofectin, gapmers targeted to nucleobases 1275 to 1318 of SEQ ID NO: 1

Substance | % inhibition
416928 (antisense eA*eT*eT*dG*dG*dT*dG*d[5mC]*dA*d[5mC]*dA*dG*dT*dT*dT*d[5mC]*dT*eG*eG*e[5mC]) [compound 416928] | 91%
416936 (antisense e[5mC]*eG*eG*dA*d[5mC]*dG*dG*d[5mC]*dA*dT*dT*dG*dG*dT*dG*d[5mC]*dA*e[5mC]*eA*eG) [compound 416936] | 89%
417016 (antisense e[5mC]*eA*dG*d[5mC]*dG*dG*dA*d[5mC]*dG*dG*d[5mC]*dA*dT*dT*dG*eG*eT*eG*e[5mC]*eA) [compound 417016] | 85%
416944 (antisense eA*e[5mC]*eT*dG*dG*d[5mC]*dA*dG*d[5mC]*dG*dG*dA*d[5mC]*dG*dG*d[5mC]*dA*eT*eT*eG) [compound 416944] | 83%
417011 (antisense eG*eA*d[5mC]*dG*dG*d[5mC]*dA*dT*dT*dG*dG*dT*dG*d[5mC]*dA*e[5mC]*eA*eG*eT*eT) [compound 417011] | 86%
416937 (antisense eG*e[5mC]*eG*dG*dA*d[5mC]*dG*dG*d[5mC]*dA*dT*dT*dG*dG*dT*dG*d[5mC]*eA*e[5mC]*eA) [compound 416937] | 93%
417012 (antisense eG*eG*dA*d[5mC]*dG*dG*d[5mC]*dA*dT*dT*dG*dG*dT*dG*d[5mC]*eA*e[5mC]*eA*eG*eT) [compound 417012] | 72%
417010 (antisense eA*e[5mC]*dG*dG*d[5mC]*dA*dT*dT*dG*dG*dT*dG*d[5mC]*dA*d[5mC]*eA*eG*eT*eT*eT) [compound 417010] | 81%
416930 (antisense eG*e[5mC]*eA*dT*dT*dG*dG*dT*dG*d[5mC]*dA*d[5mC]*dA*dG*dT*dT*dT*e[5mC]*eT*eG) [compound 416930] | 87%
417017 (antisense eG*e[5mC]*dA*dG*d[5mC]*dG*dG*dA*d[5mC]*dG*dG*d[5mC]*dA*dT*dT*eG*eG*eT*eG*e[5mC]) [compound 417017] | 82%
417005 (antisense eA*eT*dT*dG*dG*dT*dG*d[5mC]*dA*d[5mC]*dA*dG*dT*dT*dT*e[5mC]*eT*eG*eG*e[5mC]) [compound 417005] | 79%
417013 (antisense e[5mC]*eG*dG*dA*d[5mC]*dG*dG*d[5mC]*dA*dT*dT*dG*dG*dT*dG*e[5mC]*eA*e[5mC]*eA*eG) [compound 417013] | 86%
416927 (antisense eT*eT*eG*dG*dT*dG*d[5mC]*dA*d[5mC]*dA*dG*dT*dT*dT*d[5mC]*dT*dG*eG*e[5mC]*eA) [compound 416927] | 87%
417021 (antisense eA*e[5mC]*dT*dG*dG*d[5mC]*dA*dG*d[5mC]*dG*dG*dA*d[5mC]*dG*dG*e[5mC]*eA*eT*eT*eG) [compound 417021] | 74%
416940 (antisense eG*e[5mC]*eA*dG*d[5mC]*dG*dG*dA*d[5mC]*dG*dG*d[5mC]*dA*dT*dT*dG*dG*eT*eG*e[5mC]) [compound 416940] | 92%
417018 (antisense eG*eG*d[5mC]*dA*dG*d[5mC]*dG*dG*dA*d[5mC]*dG*dG*d[5mC]*dA*dT*eT*eG*eG*eT*eG) [compound 417018] | 82%
